Source: publication PMC7904743, “WIDOCK: a reactive docking protocol for virtual screening of covalent inhibitors” (Journal of Computer-Aided Molecular Design, 2021)
Entries after “also recorded” stand apart in the source; their conditions may differ. Where two headings read alike, the source gives them in different places.

How the values were obtained:
KRAS^G12C = test system: KRAS^G12C; parameters: method as in PMID 28621541; settings: > 50% labeling at 100 μM considered active; cited from earlier work
[1] = molecular target: T1, Recombinant human microsomal MAO-A (Homo sapiens, UniProt P21397); assay: MAO-A activity assay (fluorimetric, Amplex Red, p-tyramine); assay type: biochemical; settings: for RA: MAO-A residual activity, active if lower than 60%; for MAO-A inhibition (experimental): MAO-A inhibitory assay
T1 construct: purchased Sigma Aldrich; host or cells: baculovirus infected insect cells (BTI-TN-5B1-4)
T1 sequence (P21397 1-527): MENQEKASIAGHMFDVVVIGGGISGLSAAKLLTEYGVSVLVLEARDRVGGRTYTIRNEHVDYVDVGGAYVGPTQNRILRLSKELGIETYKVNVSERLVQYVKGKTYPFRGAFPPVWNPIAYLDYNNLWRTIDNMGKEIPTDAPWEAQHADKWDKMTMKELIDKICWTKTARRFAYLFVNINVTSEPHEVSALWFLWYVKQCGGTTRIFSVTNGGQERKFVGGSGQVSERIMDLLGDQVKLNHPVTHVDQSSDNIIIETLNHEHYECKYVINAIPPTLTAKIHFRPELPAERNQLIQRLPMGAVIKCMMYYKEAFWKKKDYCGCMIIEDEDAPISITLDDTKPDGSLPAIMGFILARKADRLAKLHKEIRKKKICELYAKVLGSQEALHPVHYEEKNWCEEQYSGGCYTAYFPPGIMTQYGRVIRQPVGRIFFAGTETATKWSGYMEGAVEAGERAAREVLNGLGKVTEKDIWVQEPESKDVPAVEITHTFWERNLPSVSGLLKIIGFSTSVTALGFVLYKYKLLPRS
Experimental: The effects of the test compounds on MAO-A were investigated using a fluorimetric assay, following a previously described methodology. The inhibitory activity of the compounds was evaluated by their effects on the production of hydrogen peroxide (H2O2) from p-tyramine. The production of H2O2 was detected using Amplex Red reagent in the presence of horseradish peroxidase, where a highly sensitive fluorescent product, resorufin, is produced at stoichiometric amounts. Recombinant human microsomal MAO-A enzyme expressed in baculovirus infected insect cells (BTI-TN-5B1-4), horse-radish peroxidase (type II, lyophilized powder), and p-tyramine hydrochloride were obtained from Sigma Aldrich. 10-Acetyl-3,7-dihydroxyphenoxazine (Amplex Red reagent) was synthesized as described in the literature.
Briefly, 100 µL 50 mM sodium phosphate buffer (pH 7.4, 0.05% Triton X-114) containing the compounds and MAO-A were incubated for 30 min at 37 °C in a flat-bottomed black 96-well microplate, and placed in a dark microplate reader chamber. After the pre-incubation, the reaction was started by adding the final concentrations of 200 µM Amplex Red reagent, 2 U/mL horseradish peroxidase, and 1 mM p-tyramine (final volume, 200 µL). The production of resorufin was quantified based on the fluorescence generated (λex = 530 nm, λem = 590 nm) at 37 °C over a period of 30 min, during which time the fluorescence increased linearly. For control experiments, DMSO was used instead of the appropriate dilutions of the compounds in DMSO. To determine the blank value (b), phosphate-buffered solution replaced the enzyme solution. The initial velocities were calculated from the trends obtained, with each measurement carried out in duplicate. The specific fluorescence emission to obtain the final result was calculated after subtraction of the blank activity (b).

[2] = cited from earlier work
MurA [3] = molecular target: T2, MurA (Escherichia coli, UniProt P0A749); settings: MurA residual activity; active if lower than 60%
Experimental: (§1) These fragments were measured in single point enzyme activity assays at 100 μM concentration against MurA and CatB.

CatB [4] = molecular target: T3, CatB (Homo sapiens, UniProt P07858); assay: CatB single point enzyme activity assay (residual activity); settings: for remaining activity at 100 µM: read-out: RA
Experimental: as §1

[5] = Kinetic measurement of adduct formation with L-glutathione (GSH) by HPLC–MS; assay type: physicochemical; parameters: unit not given here
Experimental: Electrophilic fragments tested against MurA, CatB and MAO-A (25–53, structures shown in Supporting Figure S2 and SMILES provided in Supporting Table S1) represent eight different warhead chemotypes reacting via two reaction mechanisms: Michael-type nucleophilic addition and nucleophilic substitution. The intrinsic thiol reactivities (see Table 1) were determined by kinetic measurement of adduct formation with L-glutathione (GSH), a widely used cysteine surrogate, by an HPLC–MS methodology, as described in the referred study.

CatB [6] = molecular target: T3, CatB; parameters: method as in PMID 30321804; settings: cited from earlier work; for CatB RA (%): residual activity at 100 μM, single point; for experimental activity class against CatB: < 60% residual activity at 100 μM considered active
MurA [7] = molecular target: T2, MurA; settings: cited from earlier work; for MurA RA (%): residual activity at 100 μM, single point; for experimental activity class against MurA: < 60% residual activity at 100 μM considered active
human MAO-A = molecular target: T4, human MAO-A (Homo sapiens, UniProt P21397); assay: Labelling of human MAO-A, tryptic digestion and LC–MS/MS; assay type: binding; settings: 24 h at 4 °C, tryptic digestion
T4 sequence (P21397 1-527): T1 sequence (P21397 1-527)

MurA [8] = molecular target: T2, MurA; assay: biochemical; settings: read-out: RA
Experimental: as §1

[9] = half-life of adduct formation with L-glutathione

T2 sequence (P0A749 whole entry): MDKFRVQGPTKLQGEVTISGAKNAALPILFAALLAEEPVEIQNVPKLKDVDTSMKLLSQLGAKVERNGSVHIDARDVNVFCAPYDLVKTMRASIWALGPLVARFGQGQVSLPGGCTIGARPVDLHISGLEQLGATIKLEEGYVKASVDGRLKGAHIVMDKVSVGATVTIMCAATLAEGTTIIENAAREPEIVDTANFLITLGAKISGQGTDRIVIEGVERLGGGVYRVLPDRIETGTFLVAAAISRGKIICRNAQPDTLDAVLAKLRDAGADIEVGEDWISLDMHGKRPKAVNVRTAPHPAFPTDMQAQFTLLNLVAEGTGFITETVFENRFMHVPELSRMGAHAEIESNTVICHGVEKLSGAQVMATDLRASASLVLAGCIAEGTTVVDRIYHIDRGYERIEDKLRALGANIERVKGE

Row | SMILES | experimental activity class against KRAS^G12C (KRAS^G12C) | RA [1] [%] | GSH half-life [2, 9] [h] | RA (MurA [3]) [%] | RA (CatB [4]; CatB residual activity, active if lower than 60%) [%] | Reactivity, Experimental ln(k) vs GSH [5] | CatB RA (%) (CatB [6]) | MurA RA (%) (MurA [7]) | covalent labelling of MAO-A (MS/MS) (human MAO-A) | experimental activity class against MurA (MurA [7]) | MAO-A inhibition (experimental) [1] | remaining activity at 100 µM (CatB [4]) [%] | remaining activity at 100 µM (MurA [8]) [%] | experimental activity class against CatB (CatB [6]) | GSH half-life ([2]; buffer) [h]
1 | Cc1ccc2[nH]ncc2c1-c1c(Cl)cc2c(N3CCN(C(=O)n4ccnc4)CC3)ncnc2c1F [Compound 14, c1n[nH]c(c12)ccc(C)c2-c(c(Cl)c3)c(F)c(c34)ncnc4N5CCN(CC5)C(=O)n6ccnc6] | experimental actives | – | – | – | – | – | – | – | – | – | – | – | – | – | –
2 | Cc1ccc2[nH]ncc2c1-c1c(Cl)cc2c(N3CCC(NC(=O)CCl)CC3)ncnc2c1F [Compound 17, c1n[nH]c(c12)ccc(C)c2-c(c(Cl)c3)c(F)c(c34)ncnc4N5CCC(CC5)NC(=O)CCl] | experimental actives | – | – | – | – | – | – | – | – | – | – | – | – | – | –
3 | C/C=C/C#N [Compound 28, C/C=C/C#N] | – | 81 | 41.2 | 101 | 87 | -4.085 | 87 | 101 | – | – | – | – | – | – | –
4 | C=CC(=O)Nc1cc(C(F)(F)F)cc(C(F)(F)F)c1 [Compound 32, C=CC(=O)Nc1cc(C(F)(F)F)cc(C(F)(F)F)c1] | – | – | – | – | – | – | – | – | double modified; also recorded: forms a covalent bond with Cys323 | experimental MurA actives | – | – | – | – | –
5 | O=C1C=CC(=O)N1Cc1ccccc1 [Compound 39, O=C1C=CC(=O)N1Cc1ccccc1] | – | 0 | < 0.1 | – | – | 1.936 | 87 | 2 | – | – | active | 87 | 2 | – | –
6 | O=C1C=CC(=O)N1C1CCCCC1 [Compound 40, O=C1C=CC(=O)N1C1CCCCC1] | – | 3 | < 0.1 | – | – | 1.936 | 89 | 1 | – | – | – | 89 | 1 | – | –
7 | O=C1C=CC(=O)N1c1ccccc1 [Compound 41, O=C1C=CC(=O)N1c1ccccc1] | – | 1 | < 0.1 | – | – | 1.936 | 82 | 1 | – | experimental MurA actives | – | 82 | 0.8 | – | –
8 | CC(C)(C)OC(=O)N1CC=CC1=O [Compound 42, CC(C)(C)OC(=O)N1CC=CC1=O] | – | 47 | 161 | – | – | -5.449 | 85 | 92 | – | – | – | 85 | 92 | – | –
9 | O=C1C=CCO1 [Compound 43, O=C1C=CCO1] | – | 99 | 194 | – | – | -5.634 | 99 | 75 | – | – | – | 99 | 75 | – | –
10 | O=C(CBr)c1ccc(-c2ccccc2)cc1 [Compound 44, O=C(CBr)c1ccc(-c2ccccc2)cc1] | – | 14 | < 0.1 | – | – | 1.936 | 0 | 0 | – | – | – | 0.1 | 0.1 | experimental actives | –
11 | O=C(CBr)c1ccccc1 [Compound 45, O=C(CBr)c1ccccc1] | – | 39 | – | – | – | 1.936 | 27 | 2 | – | – | found to inhibit MAO-A activity | 27 | 2 | – | < 0.1
12 | COc1ccccc1C(=O)CBr [Compound 46, COc1ccccc1C(=O)CBr] | – | 39 | < 0.1 | – | – | 1.936 | 55 | 3 | – | experimental MurA actives | – | 55 | 3 | experimental actives | –
13 | Cc1ccccc1NC(=O)CCl [Compound 47, Cc1ccccc1NC(=O)CCl] | – | 78 | 326 | – | – | -6.153 | 86 | 83 | – | – | – | 86 | 83 | – | –
14 | CC(Br)C(=O)Nc1cc(C(F)(F)F)cc(C(F)(F)F)c1 (stereo not shown) [Compound 50, CC(Br)C(=O)Nc1cc(C(F)(F)F)cc(C(F)(F)F)c1] | – | 83 | 95.2 | – | – | -4.922 | 91 | 35 | – | – | – | 91 | 35 | – | –
15 | COc1cc(NC(=O)CCl)cc(OC)c1 [Compound 51, COc1cc(NC(=O)CCl)cc(OC)c1] | – | 69 | 22.9 | – | – | -3.498 | 87 | 61 | – | – | – | 87 | 61 | – | –
